# US7683061B2, “Triazine dimers for the treatment of autoimmune diseases” (ProMetic BioSciences Inc., priority 2003, dated 2010)
# Read-outs that look alike come from different tables or passages of the source.
# Tests used:
# [1] = target: T1, Fc portion of human IgG (binding of protein A to human IgG); test: Competitive protein A binding ELISA
# T1 construct: fused on or other part: Horseradish peroxidase chemically conjugated to the IgG (HRP-IgG)
# Procedure, shortened: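 Protein A coated overnight at 4 °C and blocked with 2% BSA. Compound, diluted in PBS or PBS-20% DMSO, competed with HRP-conjugated human IgG for 1 h at 37 °C. Bound IgG detected with ABTS at 405 nm; IC50 is the concentration inhibiting 50% of protein A binding.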
# [2] = target: TNFα / p55 TNFα receptor (CD120a) (Homo sapiens, UniProt P01375); test: Binding ELISA: TNF-α binding to plastic coated TNF-R1; conditions: for inhibition at 100 µM: 10^−4 M; for inhibition at 10 µM: 10^−5 M
# Method: (§1) Compounds were tested for their ability to bind to TNFα or inhibit the interaction of TNFα with its respective receptors; p55 and p75 TNFα receptor. Three binding ELISA assays were undertaken as described by Mancini et al. Biochemical Pharmacology 58, 851-859 (1999). TNFα or receptor (1 μg/mL) was coated on a 96-well plate Maxisorp, overnight at 4° C. After incubation, unbound TNFα or p55 TNFα receptor or p75 TNFα receptor was removed and the plate washed three times with PBS. The plate was then incubated with 100 μL/well of a 2% BSA solution for 1 h at 37° C. to block non specific protein binding. After incubation, the plate was washed three times with PBS. Biotinylated recombinant human TNFα p55 or p75 receptor or biotinylated recombinant human TNFα was added to the wells in the presence or absence of compounds. The plate was incubated for 1 h at 37° C. After incubation, the plate was washed three times with PBS to remove unbound labeled p55 or p75 receptor or recombinant human TNFα. 100 μL of avidin-HRP (diluted 1/2000 in PBS-0.1% BSA) was added to each well and incubated 1 h at 37° C. Bound p55 or p75 receptor or recombinant human TNFα was detected by the addition of 200 μL of 3,3′,5,5′-tetramethylbenzidine (TMB) per well for 15 min. The plate was then read at 655 nm on a EL 800 universal Microplate reader (Bio-Tek, Mississauga, Canada). Data was analyzed in Microsoft Excel and recorded as the percentage of inhibition of p55 or p75 binding to TNFα or TNFα binding to RI (p55) or RII (p75).
# [3] = target: TNFα / p75 TNFα receptor (CD120b) (Homo sapiens, UniProt P01375); test: Binding ELISA: TNF-α binding to plastic coated TNF-R2; conditions: for inhibition at 100 µM: 10^−4 M; for inhibition at 10 µM: 10^−5 M
# Method: as §1
# [4] = system: TNFα production, J774A-1 cells; test: LPS-induced TNFα production in J774A-1 cells (ELISA); type: cell-based; conditions: Mus musculus, J774.A1, 24 h, read-out: IC50 (μM), inhibition of TNFα released by LPS induction
# Procedure, shortened: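 J774-1 macrophages were cultured with or without LPS and compound at 37° C for 24 h. TNFα in supernatants measured by ELISA; IC50 is the concentration inhibiting 50% of TNFα production.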
# [5] = system: peripheral blood mononuclear leukocytes (PBML); test: PBML DNA synthesis (thymidine); type: cell-based, human; conditions: for IC50: Homo sapiens, Leukocyte; for effect on DNA synthesis (in words): resting and stimulated (ConA and PWM) PBML
# Description: (§2) PBML were obtained from the peripheral blood of healthy volunteers. Blood was submitted to gradient centrifugation with Lympholyte-poly (Cedarlane, Hornby, Canada). The layer, which contains the mononuclear leukocytes, was collected and the cells washed three times in PBS. Cells were then suspended in RPMI (Gibco, Burlington, Canada) supplemented with […] (cyclone, Logan USA). Viability was greater than 99% as determined by trypan blue exclusion.
# (§3) PBML were resuspended at 2×10^6 cells mL. 100 μL of PBML (2×10^5 cells) were incubated in a 96-well microtiter plate for 48 h in the presence or absence of compound or protein A. Cells were quiescent or stimulated with concanavalin A (ConA; T-cells) or pokeweed mitogen (PWM; B-cells). After incubation, cells were treated with MTT (cytotoxicity) or pulsed with 1 μCi of [^3]-thymidine (DNA synthesis), [^3H]-uridine (RNA synthesis) or [^3]-leucine (protein synthesis) for 6 h. Plates were harvested on a Tomteck and counted on a Microbeta β-counter.
# [6] = system: peripheral blood mononuclear leukocytes (PBML); test: PBML RNA synthesis (uridine); type: cell-based, human; conditions: for IC50: Homo sapiens, Leukocyte; for effect on RNA synthesis (in words): resting and stimulated (ConA and PWM) PBML
# Description: as §2, §3
# [7] = system: peripheral blood mononuclear leukocytes (PBML); test: PBML protein synthesis (leucine); type: cell-based, human; conditions: for IC50: Homo sapiens, Leukocyte; for effect on protein synthesis (in words): resting and stimulated PBML
# Description: as §2, §3
# [8] = Table 1, PBS-20% DMSO, read-out: IC50 (μM): Assay in PBS-20% DMSO
# Sequence of TNFα / p75 TNFα receptor (CD120b) (P01375 77-233 limits assumed): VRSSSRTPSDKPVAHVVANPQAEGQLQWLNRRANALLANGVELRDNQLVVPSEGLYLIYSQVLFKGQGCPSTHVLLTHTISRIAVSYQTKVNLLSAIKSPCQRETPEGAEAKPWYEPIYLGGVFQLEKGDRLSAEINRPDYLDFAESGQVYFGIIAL
# Sequence of TNFα / p55 TNFα receptor (CD120a) (P01375 77-233 limits assumed): as above
Compound,"IC50 [1, 8]",inhibition at 100 µM [2],inhibition at 10 µM [2],inhibition at 100 µM [3],inhibition at 10 µM [3],IC50 [4],IC50 ([5]; ConA stimulated PBML),IC50 ([5]; PWM stimulated PBML),IC50 ([5]; Resting PBML),effect on DNA synthesis (in words) [5],IC50 ([6]; ConA stimulated PBML),IC50 ([6]; PWM stimulated PBML),IC50 ([6]; Resting PBML),effect on RNA synthesis (in words) [6],IC50 ([7]; ConA stimulated PBML),IC50 ([7]; PWM stimulated PBML),IC50 ([7]; Resting PBML),effect on protein synthesis (in words) [7],other results
Oc1ccc(CCNc2nc(NCCNc3nc(NCCc4ccc(O)cc4)nc(Nc4ccccc4)n3)nc(Nc3ccccc3)n2)cc1 [Compound 1],50 µM,46%,28.9%,63.3%,38.4%,9.2 µM,1420 nM,770 nM,2490 nM,suppress,920 nM,660 nM,1100 nM,suppress,2440 nM,2960 nM,6480 nM,inhibit,–
Nc1ccc(CCNc2nc(Nc3ccc(CCNc4nc(NCCO)nc(Nc5cccc(N)c5)n4)cc3)nc(Nc3cccc(N)c3)n2)cc1 [Compound 19a],0.003 µM,13.3%,-4%,27.4%,24.3%,20.7 µM,1570 nM,4380 nM,1900 nM,suppress,693 nM,398 nM,399 nM,suppress,3910 nM,4880 nM,9900 nM,inhibit,"IC50 ([1]; Table 1, PBS, read-out: IC50 (μM): Assay in PBS): 0.06 µM; IC50 ([1]; Table 2, PBS-20% DMSO, n = 5 or 6, read-out: IC50 (n = 5 or 6) PBS-20% DMSO): 0.0035 µM; IC50 ([1]; Table 2, PBS, n = 5 or 6, read-out: IC50 (n = 5 or 6) PBS): 0.088 µM"
